The values that follow come from article PMC6273932, “Xanthium strumarium as an Inhibitor of α-Glucosidase, Protein Tyrosine Phosphatase 1β, Protein Glycation and ABTS^+ for Diabetic and Its Complication” (Molecules, 2016).

In one experiment the test system is PTP1β. Further details: method as in ref 16 (Hwang et al.). As to conditions: compounds isolated from Zea mays L., ref 16 (Hwang et al.), cited from earlier work.
The target of the next experiment is α-glucosidase. Set-up: method as in ref 15 (Chen et al.). As to conditions: compounds isolated from aerial parts of Gynura divaricate; ref 15 (Chen et al.); read-out: inhibitory effects against α-glucosidase; cited from earlier work.
Experiment [1] deals with α-glucosidase from Saccharomyces sp. In words: α-glucosidase inhibitory activity assay (pNPG substrate, absorbance 405 nm). It is filed as biochemical. An excerpt: ^1H- and ^13C-NMR spectra and correlation NMR spectra such as COSY, HMBC, HMQC, and DEPT were obtained from a Bruker Avance DPX 400 (or 600) spectrometer (Berlin, Germany). These were obtained at operating frequencies of 400 MHz (^1H) and 100 (or 150) MHz (^13C) with CD3OD, (CD3)2SO, (CD3)2CO, or D2O and TMS was used as an internal standard; chemical shifts were reported in δ values. The α-glucosidase from Saccharomyces sp. (SSG) was purchased from Wako Pure Chemical Industries Ltd (Tokyo, Japan). […] All other chemicals and reagents used were of analytical grade.
The α-glucosidase inhibitory activity of the extracts and fractions was determined using a modified procedure reported method with a slight modification. The α-glucosidase activity was measured using the substrate p-nitrophenyl-α-D-glucopyranoside (pNPG), which is hydrolyzed by α-glucosidase to release the product p-nitrophenol, a colorant that can be monitored at 405 nm. The initial concentration of the enzyme solution was 0.62 unit/mL in 0.1 M phosphate buffer (pH 6.9) and the initial concentration of the substrate solution was 2 mM in the same phosphate buffer. The enzyme solution was mixed with water and the samples or controls in a clear 96-well microplate (flat bottom) and the reaction was initiated by addition of the substrate to the solution. The plates were incubated at 37 °C for 5 min and the reaction was terminated by the addition of 0.1 M Na2CO3. […] Background absorbance was determined using a non-enzyme control microplate containing the buffer and was subtracted from the absorbance of the samples and controls.

The target of experiment [2] is T1, protein tyrosine phosphatase 1β (PTP1β) (Homo sapiens, UniProt P18031).
T1 sequence (P18031 1-322 limits assumed): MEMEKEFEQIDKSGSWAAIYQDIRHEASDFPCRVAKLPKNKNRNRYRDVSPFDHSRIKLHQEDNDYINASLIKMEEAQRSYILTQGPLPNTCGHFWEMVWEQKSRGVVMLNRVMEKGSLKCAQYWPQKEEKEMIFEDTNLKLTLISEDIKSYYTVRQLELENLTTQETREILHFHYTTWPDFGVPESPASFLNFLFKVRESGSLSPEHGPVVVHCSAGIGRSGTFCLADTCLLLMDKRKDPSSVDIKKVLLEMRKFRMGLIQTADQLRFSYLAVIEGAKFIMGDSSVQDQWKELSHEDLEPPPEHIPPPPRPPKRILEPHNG
The experiment can be described thus: PTP1β inhibitory activity assay (colorimetric kit, IR5 phosphopeptide substrate). The format is biochemical. The protocol:
PTP1β tyrosine phosphatase drug discovery kit is a colorimetric, non-radioactive assay designed to measure the phosphatase activity of purified PTP1β. […] Following incubation at 37 °C for 30 min, the reaction was terminated with the BIOMOL RED^TM reagent. The amount of […] produced was estimated by measuring the absorbance at 620 nm. The non-enzymatic hydrolysis of the IR5 substrate was corrected by measuring the increase in absorbance at 620 nm obtained in the absence of PTP1β enzyme.

Experiment [3] relates to advanced glycation end products (AGEs). In words: AGEs inhibitory activity, bovine serum albumin-methylglyoxal assay (fluorescence). The format is biochemical. The protocol: The modified procedure of Lee et al. was followed. Bovine serum albumin (10 mg/mL) was incubated with 5 mM methylglyoxal in sodium phosphate buffer (100 mM; pH 7.4). […] All of the reagents and samples were […] by filtration through 0.2 μm membrane filters and the mixture was incubated at 37 °C for 7 days. The fluorescence intensity was measured at an excitation wavelength of 330 nm and an emission wavelength of 410 nm with a LS50B fluorescence spectrometer Perkin-Elmer Ltd., (Buckinghamshire, FLS, UK). Aminoguanidine was also tested as a known inhibitor.

The nature of experiment [4]: ABTS^+ radical scavenging activity assay. The protocol:
The method described by Li et al. was used with slight modifications. ABTS^+ diammonium salt (2 mM) and potassium persulfate (3.5 mM) were mixed, diluted in distilled water and kept in the dark at room temperature for 24 h before use. After addition of ABTS^+ solution to 10 µL of antioxidant, measurements were recorded at 10 min post reaction. The percentage inhibition of absorbance at 750 nm was calculated and plotted as a function of concentration of antioxidants. Trolox was used as positive control.

Experiment [5] concerns rat lens aldose reductase. As to conditions: compounds from X. strumarium; cited from earlier work.
The subject of experiment [6] is recombinant aldose reductase. The conditions noted are these: compounds from X. strumarium; cited from earlier work.
A further experiment has as its system AGEs. Set-up: method as in PMID 20118563. As to conditions: isolated from the extracts of Erigeron annuus; cited from earlier work.
Setting [7] is: isolated compounds, - is no activity.

In brackets after ≈: the same amount, converted by molar mass.

Turning to `O=c1c(O[C@@H]2O[C@H](CO)[C@@H](O)[C@H](O)[C@H]2O)c(-c2ccc(O)c(O)c2)oc2cc(O)cc(O)c12` [hirsutrin], the “PTP1β inhibitory activity IC50” value in the experiment with PTP1β is given as “no activity”.
As to `O=C(/C=C/c1ccc(O)c(O)c1)O[C@@H]1[C@H](O)C[C@@](O)(C(=O)O)C[C@H]1OC(=O)/C=C/c1ccc(O)c(O)c1` [4,5-di-O-CQA], on α-glucosidase, the IC50 was 131 µM.
As to methyl 4,5-di-O-CQA, the IC50 at α-glucosidase is 13.1 µM.
Consider `COc1cc(-c2oc3cc(O)cc(O)c3c(=O)c2O[C@@H]2O[C@H](CO)[C@@H](O)[C@H](O)[C@H]2O)ccc1O` [3′-methoxyhirsutrin], for which, in the experiment with PTP1β (read-out: PTP1β inhibitory activity IC50), the IC50 is 64 µM.
For `COC(=O)[C@]1(O)C[C@@H](O)[C@@H](OC(=O)/C=C/c2ccc(O)c(O)c2)[C@H](OC(=O)/C=C/c2ccc(O)c(O)c2)C1` [methyl 3,4-di-O-CQA], the IC50 on α-glucosidase was 12.2 µM.
Broadly, the inhibition is the relative decrease from the control value, in per cent. Take `COC(=O)[C@]1(O)C[C@@H](OC(=O)/C=C/c2ccc(O)c(O)c2)[C@@H](O)[C@H](OC(=O)/C=C/c2ccc(O)c(O)c2)C1` [compound 6, methyl-3,5-di-O-caffeoylquinic acid]: the “Inhibition (%) α-glucosidase” value in experiment [1] (2.5 μg/mL) is recorded as 22.63%; in [1] (5 μg/mL), 40.00%; in [1] (12.5 μg/mL), 59.11%; in experiment [1] (25 μg/mL) it was 96.50%. For the same compound, the IC50 in experiment [1] (isolated compounds) was 18.4 µM; in experiment [3] (isolated compounds), 82.8 µM; in experiment [4] (isolated compounds) it was 6.03 µM. Further, the “IC50 α-glucosidase” value in [1] (setting [7]) turned out to be 9.78 ± 0.79 µg/mL (≈ 18.4 µM). Moreover, the “fold higher inhibition than positive control acarbose (α-glucosidase)” value in [1] (ratio of IC50 (μM) values) came out at 31.74 fold. Also, in experiment [2] (1 μg/mL), the inhibition at 1 µg/mL stood at 24%. Besides, the inhibition at 2.5 µg/mL in [2] (2.5 μg/mL) was 30.7%. The inhibition at 5 µg/mL in experiment [2] (5 μg/mL) is 50%. Also, the inhibition at 10 µg/mL in [2] (10 μg/mL, - is no activity) is 82.5%. For the same compound, the “fold higher inhibition than positive control sumarin (PTP1β)” value in [2] (ratio of IC50 (μM) values) was determined as 2.93 fold. Also, the “Inhibition (%) AGEs” value in experiment [3] (10 μg/mL) is listed as 24.24%; in [3] (20 μg/mL), 34.59%; in experiment [3] (50 μg/mL) it was 54.77%; in experiment [3] (100 μg/mL), 89.47%. The “IC50 AGEs” value in experiment [3] (setting [7]) came to 43.96 ± 3.89 µg/mL (≈ 82.9 µM). The “fold higher inhibition than positive control aminoguanidine (AGEs)” value in [3] (ratio of IC50 (μM) values) is reported as 17.03 fold. For the same compound, the “Inhibition (%) ABTS^+” value in [4] (0.33 μg/mL) came to 7.49%; in [4] (1.66 μg/mL) it was 33.69%; in experiment [4] (8.33 μg/mL), 98.31%. Also, the “IC50 ABTS^+ radical scavenging” value in experiment [4] (setting [7]) was 3.20 ± 0.28 µg/mL (≈ 6.03 µM). Also, the “fold higher inhibition than positive control trolox (ABTS^+)” value in experiment [4] (ratio of IC50 (μM) values) stood at 4.93 fold. In experiment [5], the “rat lens aldose reductase inhibitory activity” value was “strong”. In addition, the “recombinant aldose reductase inhibitory activity” value in experiment [6] was “strong”. Also, the “inhibitory activity on AGEs” value with AGEs is on record as “strong inhibitory activity”.
